According to patent US20050186172A1, “Cosmetic composition capable of fighting against skin aging” (Laboratoires Clarins, a corporation of France, priority 2002, published 2005):

Test system: glycation cross-linking between bovine albumin and glucose
Assay: Anti-glycation activity: fluorescence of bovine albumin-glucose adduct (AGE) after incubation
Format: biochemical
Conditions: 10 mM, 8 days 37° C.
Description: The effect of the extract of Diospyros kaki was studied in vitro on a model based on the measurement of the formation of the derivatives of the glycation reaction between lysine and glucose 6-phosphate. Certain of these derivatives (AGE) are fluorescent. The reaction was measured after […] of incubation.
A reference molecule was tested in parallel: aminoguanidine.
The test system is the reaction mixture containing bovine albumin ([…]) and glucose (500 mM) in a phosphate buffer (0.2 M, pH=7.4.).
The products were mixed with the test system in sterile tubes; the tubes were covered with aluminum foil (the reaction must take place shielded from light).
For the experimental conditions in which certain reagents or products are not present, the volume of the QSP tube should be completed with MilliQ water.
After having sealed the openings of the tubes with parafilm (the reaction must take place without oxygen), the different reaction media were placed in a dry oven at 37° C. for 8 days.
After 8 days of incubation, 100 μl was collected from each tube and transferred to a 96-well black plate.
The fluorescence was then read using FLUOstar (BMG) (excitation at 355 nm, emission at 460 nm). The results are expressed in arbitrary fluorescence units.
The relative fluorescence for the “product+bovine albumin” (=interference) is to be subtracted from the “product+bovine albumin+glucose” data.
After 8 days of incubation of bovine albumin with an overcharge of glucose, the formation of glycation cross-linking was seen. It was evaluated by taking advantage of the fluorescence properties of the bovine albumin-glucose adduct.

SMILES: N=C(N)NN [Aminoguanidine, aminoguanidine]
- % inhibition of the glycation (BSA + glucose): 100%
- Intensity of fluorescence (BSA + glucose, ex 355 nm / em 460 nm): 13,011.5 arbitrary units
- Intensity of real fluorescence (interference subtracted): 0 arbitrary units
